How the values were obtained:
Type in all cases: in vivo
[1] = test system: barnyardgrass (Echinochloa crus-galli); assay: Test G Post-Emergence Protocol; conditions: Echinochloa crus-galli, post-emergence, 312 h; for pest or weed control at 15.625 g/ha: 15.625 g ai/ha, evaluated after 13 days (100=total damage to plant; 0=no damage to plant), read-out: Barnyardgrass damage rating; for pest or weed control at 62.5 g/ha: 62.5 g ai/ha, read-out: Barnyardgrass damage rating (100=total damage to plant; 0=no damage to plant); for pest or weed control at 62.5 g/ha / pest or weed control at 250 g/ha: evaluated after 13 days; for pest or weed control at 250 g/ha: 250 g ai/ha, read-out: damage to plant, Barnyardgrass (100=total damage to plant; 0=no damage to plant)
Method in brief: (§1)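 Seedlings grown 8 days in soil in a glasshouse (24/16 °C day/night, 14 h light, 65% humidity) were sprayed post-emergence with compound in acetone/water 50:50 plus 0.5% Tween 20 at 15.625, 62.5 or 250 g/ha. Damage was scored after 13 days on a 0–100 scale (100 = total damage).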

corn (Zea mays) [2] = assay: Test G Post-Emergence Protocol; conditions: Zea mays, post-emergence, 312 h; for plant injury at 15.625 g/ha: 15.625 g ai/ha, evaluated after 13 days (100=total damage to plant; 0=no damage to plant), read-out: Corn damage rating; for plant injury at 62.5 g/ha: 62.5 g ai/ha, read-out: Corn damage rating (100=total damage to plant; 0=no damage to plant); for plant injury at 62.5 g/ha / plant injury at 250 g/ha: evaluated after 13 days; for plant injury at 250 g/ha: 250 g ai/ha, read-out: damage to plant, Corn (100=total damage to plant; 0=no damage to plant)
Method in brief: as §1

[3] = test system: giant foxtail (Setaria faberi); assay: Test G Post-Emergence Protocol; conditions: Setaria faberi, post-emergence, 312 h; for pest or weed control at 15.625 g/ha: 15.625 g ai/ha, evaluated after 13 days (100=total damage to plant; 0=no damage to plant), read-out: Foxtail, Giant damage rating; for pest or weed control at 62.5 g/ha: 62.5 g ai/ha, read-out: Foxtail, Giant damage rating (100=total damage to plant; 0=no damage to plant); for pest or weed control at 62.5 g/ha / pest or weed control at 250 g/ha: evaluated after 13 days; for pest or weed control at 250 g/ha: 250 g ai/ha, read-out: damage to plant, Foxtail, Giant (100=total damage to plant; 0=no damage to plant)
Method in brief: as §1

[4] = test system: velvetleaf (Abutilon theophrasti); assay: Test G Post-Emergence Protocol; conditions: Abutilon theophrasti, post-emergence, 312 h; for pest or weed control at 15.625 g/ha: 15.625 g ai/ha, evaluated after 13 days (100=total damage to plant; 0=no damage to plant), read-out: Velvetleaf damage rating; for pest or weed control at 62.5 g/ha: 62.5 g ai/ha, read-out: Velvetleaf damage rating (100=total damage to plant; 0=no damage to plant); for pest or weed control at 62.5 g/ha / pest or weed control at 250 g/ha: evaluated after 13 days; for pest or weed control at 250 g/ha: 250 g ai/ha, read-out: damage to plant, Velvetleaf (100=total damage to plant; 0=no damage to plant)
Method in brief: as §1

[5] = test system: redroot pigweed (Amaranthus retroflexus); assay: Test G Post-Emergence Protocol; conditions: Amaranthus retroflexus, post-emergence, 312 h; for pest or weed control at 15.625 g/ha: 15.625 g ai/ha, evaluated after 13 days (100=total damage to plant; 0=no damage to plant), read-out: Pigweed, Redroot damage rating; for pest or weed control at 62.5 g/ha: 62.5 g ai/ha, read-out: Pigweed, Redroot damage rating (100=total damage to plant; 0=no damage to plant); for pest or weed control at 62.5 g/ha / pest or weed control at 250 g/ha: evaluated after 13 days; for pest or weed control at 250 g/ha: 250 g ai/ha, read-out: damage to plant, Pigweed, Redroot (100=total damage to plant; 0=no damage to plant)
Method in brief: as §1

[6] = test system: ivy-leaved morning glory (Ipomoea hederacea); assay: Test G Post-Emergence Protocol; conditions: Ipomoea, post-emergence, 312 h; for pest or weed control at 15.625 g/ha: 15.625 g ai/ha, evaluated after 13 days (100=total damage to plant; 0=no damage to plant), read-out: Morningglory, Ivy-leaved damage rating; for pest or weed control at 62.5 g/ha: 62.5 g ai/ha, read-out: Morningglory, Ivy-leaved damage rating (100=total damage to plant; 0=no damage to plant); for pest or weed control at 62.5 g/ha / pest or weed control at 250 g/ha: evaluated after 13 days; for pest or weed control at 250 g/ha: 250 g ai/ha, read-out: damage to plant, Morningglory, Ivy-leaved (100=total damage to plant; 0=no damage to plant)
Method in brief: as §1

[7] = test system: barnyardgrass (Echinochloa crus-galli); assay: Test G Pre-Emergence Protocol; conditions: Echinochloa crus-galli, pre-emergence, 312 h, evaluated after 13 days; for pest or weed control at 15.625 g/ha: 15.625 g ai/ha, read-out: Barnyard grass damage rating (100=total damage to plant; 0=no damage to plant); for pest or weed control at 62.5 g/ha: 62.5 g ai/ha, 100=total damage to plant, 0=no damage to plant, read-out: plant damage rating, Barnyardgrass; for pest or weed control at 250 g/ha: 250 g ai/ha, read-out: Barnyardgrass damage rating (100=total damage to plant; 0=no damage to plant)
Method in brief: (§2)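 Glasshouse pre-emergence test: soil-sown seeds, sprayed after 1 d at 15.625, 62.5 or 250 g/ha. Conditions 24/16° C day/night, 14 h light, 65% humidity, watering twice daily. Rating 13 d post-spray (100 = total damage).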

corn (Zea mays) [8] = assay: Test G Pre-Emergence Protocol; conditions: Zea mays, pre-emergence, 312 h, evaluated after 13 days; for plant injury at 15.625 g/ha: 15.625 g ai/ha; for plant injury at 15.625 g/ha / plant injury at 250 g/ha: read-out: Corn damage rating (100=total damage to plant; 0=no damage to plant); for plant injury at 62.5 g/ha: 62.5 g ai/ha, 100=total damage to plant, 0=no damage to plant, read-out: plant damage rating, Corn; for plant injury at 250 g/ha: 250 g ai/ha
Method in brief: as §2

[9] = test system: giant foxtail (Setaria faberi); assay: Test G Pre-Emergence Protocol; conditions: Setaria faberi, pre-emergence, 312 h, evaluated after 13 days; for pest or weed control at 15.625 g/ha: 15.625 g ai/ha; for pest or weed control at 15.625 g/ha / pest or weed control at 250 g/ha: read-out: Foxtail, Giant damage rating (100=total damage to plant; 0=no damage to plant); for pest or weed control at 62.5 g/ha: 62.5 g ai/ha, 100=total damage to plant, 0=no damage to plant, read-out: plant damage rating, Foxtail, Giant; for pest or weed control at 250 g/ha: 250 g ai/ha
Method in brief: as §2

[10] = test system: velvetleaf (Abutilon theophrasti); assay: Test G Pre-Emergence Protocol; conditions: Abutilon theophrasti, pre-emergence, 312 h, evaluated after 13 days; for pest or weed control at 15.625 g/ha: 15.625 g ai/ha; for pest or weed control at 15.625 g/ha / pest or weed control at 250 g/ha: read-out: Velvetleaf damage rating (100=total damage to plant; 0=no damage to plant); for pest or weed control at 62.5 g/ha: 62.5 g ai/ha, 100=total damage to plant, 0=no damage to plant, read-out: plant damage rating, Velvetleaf; for pest or weed control at 250 g/ha: 250 g ai/ha
Method in brief: as §2

[11] = test system: redroot pigweed (Amaranthus retroflexus); assay: Test G Pre-Emergence Protocol; conditions: Amaranthus retroflexus, pre-emergence, 312 h, evaluated after 13 days; for pest or weed control at 15.625 g/ha: 15.625 g ai/ha; for pest or weed control at 15.625 g/ha / pest or weed control at 250 g/ha: read-out: Pigweed, Redroot damage rating (100=total damage to plant; 0=no damage to plant); for pest or weed control at 62.5 g/ha: 62.5 g ai/ha, 100=total damage to plant, 0=no damage to plant, read-out: plant damage rating, Pigweed, Redroot; for pest or weed control at 250 g/ha: 250 g ai/ha
Method in brief: as §2

[12] = test system: ivy-leaved morning glory (Ipomoea hederacea); assay: Test G Pre-Emergence Protocol; conditions: Ipomoea, pre-emergence, 312 h, evaluated after 13 days; for pest or weed control at 15.625 g/ha: 15.625 g ai/ha, read-out: Morning-glory, Ivy-leaved damage rating (100=total damage to plant; 0=no damage to plant); for pest or weed control at 62.5 g/ha: 62.5 g ai/ha, 100=total damage to plant, 0=no damage to plant, read-out: plant damage rating, Morningglory, Ivy-leaved; for pest or weed control at 250 g/ha: 250 g ai/ha, read-out: Morningglory, Ivy-leaved damage rating (100=total damage to plant; 0=no damage to plant)
Method in brief: as §2

Compound | pest or weed control at 15.625 g/ha [1] | pest or weed control at 62.5 g/ha [1] | pest or weed control at 250 g/ha [1] | plant injury at 15.625 g/ha (corn (Zea mays) [2]) | plant injury at 62.5 g/ha (corn (Zea mays) [2]) | plant injury at 250 g/ha (corn (Zea mays) [2]) | pest or weed control at 15.625 g/ha [3] | pest or weed control at 62.5 g/ha [3] | pest or weed control at 250 g/ha [3] | pest or weed control at 15.625 g/ha [4] | pest or weed control at 62.5 g/ha [4] | pest or weed control at 250 g/ha [4] | pest or weed control at 15.625 g/ha [5] | pest or weed control at 62.5 g/ha [5] | pest or weed control at 250 g/ha [5] | pest or weed control at 15.625 g/ha [6] | pest or weed control at 62.5 g/ha [6] | pest or weed control at 250 g/ha [6] | pest or weed control at 15.625 g/ha [7] | pest or weed control at 62.5 g/ha [7] | further results
Cc1cnc(NC(=O)[C@@H]2C(=O)N(C)C[C@H]2c2ccc(C(F)(F)F)cc2)nc1 (racemic) [Compound 1575] | 0% | 0% | 0% | 0% | 0% | 0% | 0% | 0% | 0% | 0% | 0% | 0% | 0% | 0% | 0% | 0% | 0% | 0% | 0% | 0% | pest or weed control at 250 g/ha [7]: 0%; plant injury at 15.625 g/ha (corn (Zea mays) [8]): 0%; plant injury at 62.5 g/ha (corn (Zea mays) [8]): 0%; plant injury at 250 g/ha (corn (Zea mays) [8]): 0%; pest or weed control at 15.625 g/ha [9]: 0%; pest or weed control at 62.5 g/ha [9]: 0%; pest or weed control at 250 g/ha [9]: 0%; pest or weed control at 15.625 g/ha [10]: 0%; pest or weed control at 62.5 g/ha [10]: 0%; pest or weed control at 250 g/ha [10]: 0%; pest or weed control at 15.625 g/ha [11]: 0%; pest or weed control at 62.5 g/ha [11]: 0%; pest or weed control at 250 g/ha [11]: 0%; pest or weed control at 15.625 g/ha [12]: 0%; pest or weed control at 62.5 g/ha [12]: 0%; pest or weed control at 250 g/ha [12]: 0%
CN1C[C@H](c2ccc(C(F)(F)F)cc2)[C@@H](C(=O)Nc2ncccc2[N+](=O)[O-])C1=O (racemic) [Compound 1431] | 0% | 0% | 0% | 0% | 0% | 0% | 0% | 0% | 0% | 0% | 0% | 10% | 0% | 0% | 40% | 0% | 0% | 0% | 0% | 0% | pest or weed control at 250 g/ha [7]: 0%; plant injury at 15.625 g/ha (corn (Zea mays) [8]): 0%; plant injury at 62.5 g/ha (corn (Zea mays) [8]): 0%; plant injury at 250 g/ha (corn (Zea mays) [8]): 0%; pest or weed control at 15.625 g/ha [9]: 0%; pest or weed control at 62.5 g/ha [9]: 0%; pest or weed control at 250 g/ha [9]: 0%; pest or weed control at 15.625 g/ha [10]: 0%; pest or weed control at 62.5 g/ha [10]: 0%; pest or weed control at 250 g/ha [10]: 0%; pest or weed control at 15.625 g/ha [11]: 0%; pest or weed control at 62.5 g/ha [11]: 0%; pest or weed control at 250 g/ha [11]: 0%; pest or weed control at 15.625 g/ha [12]: 0%; pest or weed control at 62.5 g/ha [12]: 0%; pest or weed control at 250 g/ha [12]: 0%
